Data reported in patent US20210330611A1, “THERAPY FOR NEUROLOGICAL DISEASES/DISORDERS” (priority 2020, published 2021).
Structures can show the parent of a compound that is named as a salt. Where two headings read alike, the source gives them in different places.

How the values were obtained:
[1] = test system: fibrin-induced microglia activation; assay: Image-based assay of fibrin-induced microglia activation (HTS and dose response); type: cell-based, rat; conditions: for inhibition at 10 µM: Rattus norvegicus, Microglia, read-out: Fibrin % inhibition
[2] = test system: LPS-induced microglia activation; assay: Image-based assay of LPS-induced microglia activation (HTS and dose response); type: cell-based, rat; conditions: for inhibition at 10 µM: Rattus norvegicus, Microglia, read-out: LPS % inhibition
[3] = test system: fibrin- and LPS-induced microglia activation; assay: cells; type: cell-based, rat
primary rat microglia [4] = assay: Cell toxicity (dead cells, size <150 μm2) in LPS assay
primary rat microglia [5] = assay: Cell toxicity (dead cells, size <150 μm2) in coated fibrin (cFib) assay;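 note: share of dead cells sized under 150 µm2 at 10 µM in fibrin-stimulated microglia HTS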
[6] = primary microglia HTS, fibrin stimulation, activation = cell size >800 μm2
[7] = 48 h, primary microglia HTS, LPS stimulation, activation = cell size >800 μm2
[8] = quadrant by fibrin and LPS inhibition in HTS of 1907 compounds
[9] = primary microglia HTS, LPS stimulation, toxicity = cell size <150 μm2
[10] = primary microglia HTS, fibrin stimulation, toxicity = cell size <150 μm2
[11] = primary HTS, 10 μM, fibrin-stimulated primary microglia
[12] = primary HTS, 10 μM, LPS-stimulated primary microglia
[13] = primary HTS, 10 μM, LPS assay, dead cells size <150 μm2
[14] = primary HTS, 10 μM, fibrin assay, dead cells size <150 μm2
[15] = primary microglia HTS, 10 μM, fibrin-stimulated, cell size >800 μm^2 as marker of activation
[16] = primary microglia HTS, 10 μM, LPS-stimulated, cell size >800 μm^2 as marker of activation
[17] = HTS of 1907 compounds, quadrant by fibrin and LPS inhibition
[18] = primary microglia HTS, 10 μM, LPS assay, cell size <150 μm^2 as marker of toxicity
[19] = primary microglia HTS, 10 μM, fibrin assay, cell size <150 μm^2 as marker of toxicity
[20] = primary microglia HTS, fibrin stimulation, increased cell size (>800 μm^2) as marker of activation
[21] = 48 h, primary microglia HTS, LPS stimulation, increased cell size (>800 μm^2) as marker of activation
[22] = primary microglia HTS, LPS stimulation, decreased size (<150 μm^2) as marker of toxicity
[23] = primary microglia HTS, fibrin stimulation, decreased size (<150 μm^2) as marker of toxicity

SMILES: C=C(C)[C@H]1CN[C@H](C(=O)O)[C@H]1CC(=O)O [Kainic Acid]
- inhibition at 10 µM [1, 6]: -77%
- inhibition at 10 µM [2, 7]: 14%
- Quadrant (FIG. 5b) [3, 8]: Q4
- LPS % cell toxicity (primary rat microglia [4]; [9]): 0%
- Fibrin % cell toxicity (primary rat microglia [5]; [10]): 0%

SMILES: CC(C)Oc1ccc2c(=O)c(-c3ccccc3)coc2c1 [Ipriflavone]
- inhibition at 10 µM [1, 6]: -29%
- inhibition at 10 µM [2, 7]: 7%
- Quadrant (FIG. 5b) [3, 8]: Q4
- LPS % cell toxicity (primary rat microglia [4]; [9]): 0%
- Fibrin % cell toxicity (primary rat microglia [5]; [10]): 1%

SMILES: NC(=O)OCC(O)COc1ccc(Cl)cc1 (centres unmarked) [Chlorphenesin Carbamate]
- inhibition at 10 µM [1, 11]: -41%
- inhibition at 10 µM [2, 12]: -4%
- Quadrant (FIG. 5b) ([3]; primary HTS, 10 μM): Q4
- LPS % cell toxicity (primary rat microglia [4]; [13]): 0%
- Fibrin % cell toxicity (primary rat microglia [5]; [14]): 1%

SMILES: CCOC(=O)NNc1nncc2ccccc12 [Todralazine Hydrochloride]
- inhibition at 10 µM [1, 15]: 0%
- inhibition at 10 µM [2, 16]: 19%
- Quadrant (FIG. 5b) [3, 17]: Q4
- LPS % cell toxicity (primary rat microglia [4]; [18]): 0%
- Fibrin % cell toxicity (primary rat microglia [5]; [19]): 1%

SMILES: CCCCOc1ccc(CC(=O)NO)cc1 [Bufexamac]
- inhibition at 10 µM [1, 11]: -2%
- inhibition at 10 µM [2, 12]: 17%
- Quadrant (FIG. 5b) ([3]; primary HTS, 10 μM): Q4
- LPS % cell toxicity (primary rat microglia [4]; [13]): 0%
- Fibrin % cell toxicity (primary rat microglia [5]; [14]): 1%

SMILES: Cc1cccc(C)c1NC(=O)CN1CCCC1=O [Nefiracetam]
- inhibition at 10 µM [1, 20]: -21%
- inhibition at 10 µM [2, 21]: 13%
- Quadrant (FIG. 5b) [3, 8]: Q4
- LPS % cell toxicity (primary rat microglia [4]; [22]): 0%
- Fibrin % cell toxicity (primary rat microglia [5]; [23]): 0%

SMILES: CN1CCc2c(c3ccccc3n2Cc2ccccc2)C1.CN1CCc2c(c3ccccc3n2Cc2ccccc2)C1.O=S(=O)(O)c1cccc2c(S(=O)(=O)O)cccc12 [Mebhydrolin Naphthalenesulfonate]
- Fibrin % inhibition [1, 20]: 4%
- LPS % inhibition ([2]; primary microglia HTS, LPS stimulation, increased cell size (>800 μm^2) as marker of activation): 17%
- Quadrant (FIG. 5b) [3, 8]: Q4
- LPS % cell toxicity (primary rat microglia [4]; [22]): 0%
- Fibrin % cell toxicity (primary rat microglia [5]; [23]): 1%

SMILES: C[C@H]1COc2c(N3CCN(C)CC3)c(F)cc3c(=O)c(C(=O)O)cn1c23 [Levofloxacin]
- inhibition at 10 µM [1, 6]: 12%
- inhibition at 10 µM [2, 7]: 31%
- Quadrant (FIG. 5b) [3, 8]: Q4
- LPS % cell toxicity (primary rat microglia [4]; [9]): 0%
- Fibrin % cell toxicity (primary rat microglia [5]; [10]): 1%

SMILES: O=c1cc[nH]c(=O)[nH]1 [Uracil]
- inhibition at 10 µM [1, 15]: 3%
- inhibition at 10 µM [2, 16]: 11%
- Quadrant (FIG. 5b) [3, 17]: Q4
- LPS % cell toxicity (primary rat microglia [4]; [18]): 0%
- Fibrin % cell toxicity (primary rat microglia [5]; [19]): 0%

SMILES: Cc1ccccc1N1C(=O)c2cc(S(N)(=O)=O)c(Cl)cc2NC1C (centres unmarked) [Metolazone]
- inhibition at 10 µM [1, 20]: -2%
- inhibition at 10 µM [2, 21]: 19%
- Quadrant (FIG. 5b) [3, 8]: Q4
- LPS % cell toxicity (primary rat microglia [4]; [22]): 0%
- Fibrin % cell toxicity (primary rat microglia [5]; [23]): 1%

SMILES: Nc1ccc(S(=O)(=O)NC(=O)c2ccccc2)cc1 [Sulfabenzamide]
- inhibition at 10 µM [1, 15]: -15%
- inhibition at 10 µM [2, 16]: 19%
- Quadrant (FIG. 5b) [3, 17]: Q4
- LPS % cell toxicity (primary rat microglia [4]; [18]): 1%
- Fibrin % cell toxicity (primary rat microglia [5]; [19]): 1%

SMILES: CCCCN1CCCCC1C(=O)Nc1c(C)cccc1C (centres unmarked) [Bupivacaine]
- inhibition at 10 µM [1, 11]: 12%
- inhibition at 10 µM [2, 12]: 23%
- Quadrant (FIG. 5b) ([3]; primary HTS, 10 μM): Q4
- LPS % cell toxicity (primary rat microglia [4]; [13]): 0%
- Fibrin % cell toxicity (primary rat microglia [5]; [14]): 1%

SMILES: CC(=O)N(CC(O)CN(C(C)=O)c1c(I)c(C(=O)NCC(O)CO)c(I)c(C(=O)NCC(O)CO)c1I)c1c(I)c(C(=O)NCC(O)CO)c(I)c(C(=O)NCC(O)CO)c1I (centres unmarked) [Iodixanol]
- inhibition at 10 µM [1, 6]: -15%
- inhibition at 10 µM [2, 7]: 10%
- Quadrant (FIG. 5b) [3, 8]: Q4
- LPS % cell toxicity (primary rat microglia [4]; [9]): 0%
- Fibrin % cell toxicity (primary rat microglia [5]; [10]): 0%

SMILES: CC(=O)NC1CCSC1=O (centres unmarked) [Citiolone]
- inhibition at 10 µM [1, 11]: -32%
- inhibition at 10 µM [2, 12]: 7%
- Quadrant (FIG. 5b) ([3]; primary HTS, 10 μM): Q4
- LPS % cell toxicity (primary rat microglia [4]; [13]): 0%
- Fibrin % cell toxicity (primary rat microglia [5]; [14]): 0%

SMILES: CC[C@@H](C(N)=O)N1CCCC1=O [Levetiracetam]
- inhibition at 10 µM [1, 6]: -24%
- inhibition at 10 µM [2, 7]: 7%
- Quadrant (FIG. 5b) [3, 8]: Q4
- LPS % cell toxicity (primary rat microglia [4]; [9]): 0%
- Fibrin % cell toxicity (primary rat microglia [5]; [10]): 1%

SMILES: Cc1cc2nc3ccc(N(C)C)cc3[s+]c2cc1N [Tolonium Chloride]
- inhibition at 10 µM [1, 15]: -4%
- inhibition at 10 µM [2, 16]: 43%
- Quadrant (FIG. 5b) [3, 17]: Q4
- LPS % cell toxicity (primary rat microglia [4]; [18]): 1%
- Fibrin % cell toxicity (primary rat microglia [5]; [19]): 1%
